Laboratory results: paper PMC6270821, “ROS-Mediated Cytotoxic Effect of Copper(II) Hydrazone Complexes against Human Glioma Cells” (Molecules, 2014)

How the values were obtained:
EB-CT-DNA = assay: Competitive binding with EB bound to CT-DNA (fluorescence); parameters: species or system calf; conditions: for apparent binding constant Kapp (EB-CT-DNA): KEB 1.0 × 10^7 M^−1, [EB] = 10 µM; for number of binding sites n (EB-CT-DNA): Scatchard equation; for Stern-Volmer quenching constant Ksv (EB-CT-DNA) / binding constant K (EB-CT-DNA, Scatchard) / hypochromism in the EB-CT-DNA emission band at 602 nm: Tris-HCl pH 7.20, 25 °C; for hypochromism in the EB-CT-DNA emission band at 602 nm: complex up to 100 µM
Method: Steady-state competitive binding experiments using complexes 1 and 2were undertaken to get further proof for the binding of the complexes to DNA. The technique is based on the decrease of EB fluorescence resulting from the competitive displacement of EB from a DNA groove by a compound that competes for the same site.
The quenching data were analyzed by the Stern-Volmer equation: F0/F = Ksv[Q] + 1 (2) where F0 is the emission intensity in the absence of quencher, F is the emission intensity in the presence of quencher, Ksv is the quenching constant, and [Q] is the quencher concentration. The Ksv value is obtained as a slope from the plot of F0/F vs. [Q] [34].
The apparent binding constants (Kapp) were calculated from Equation (3): KEB [EB] = Kapp [complex] (3) where KEB is 1.0 × 10^7 M^−1, [EB] = 10 µM, and [complex] is the complex concentration when the fluorescence intensity of EB is 50%. This value is obtained from the plot F0/F vs. [complex] when F0/F = 2.
The binding constants (K) were calculated by the Scatchard Equation (4) (see Figure 6): log[(F0 − F)/F] = logK + nlog[Q] (4) where F0 and F are the fluorescence intensities of EB in the absence and presence of compound; [Q] is the compound concentration; K is the binding constant of compound with EB and n is the number of binding sites. K is the antilog of the intercept and n is the slope obtained from the plot of log[(F0 − F)/F] vs. […].
The affinity of the complexes for DNA was evaluated by a fluorescence technique using ethidium bromide (EB) bound to CT-DNA (EB-CT-DNA) solution in Tris-HCl buffer (pH = 7.20). EB is a planar cationic dye which is widely used as a sensitive fluorescence probe for native DNA. EB emits intense fluorescent light in the presence of DNA due to its strong intercalation between the adjacent DNA base-pairs. The changes in the fluorescence intensity at 602 nm (excitation at 545 nm) of EB-CT-DNA were measured with respect to the concentration of the copper(II) complexes. In fact, when it is removed, EB is non-emissive in Tris-HCl buffer solution (pH = 7.20), due to fluorescence quenching of the free EB by solvent molecules.

pUC 19 plasmid DNA = assay: Agarose gel electrophoresis of supercoiled plasmid DNA; parameters: species or system Escherichia coli; conditions: 100 µM, Tris-HCl pH 7.20, 37 °C, 24 h
Method: Studies of interactions between the compounds under study and supercoiled plasmid DNA by agarose gel electrophoresis were carried out. Thus, 136 ng of purified plasmid DNA-pUC 19 from Escherichia coli (Sigma-Aldrich Brasil, São Paulo, Brazil) were incubated with compounds 1, 2 and cisplatin at 100 µM in Tris-HCl buffer (NaCl 50 mM, Tris-HCl 5 mM, pH = 7.20). The mixture was incubated at 37 °C for 24 h. Thereafter, the reactions were quenched by adding 5 µL of the loading buffer solution (50 mM Tris, pH 7.20, 0.01% bromophenol blue, 50% glycerol, and 250 mM EDTA). The samples were analyzed by 1% agarose gel electrophoresis in 0.5 × TBE buffer for 1 h 40 min at […]. The gel was stained after electrophoresis in 0.5× TBE buffer with 2.5 µg·mL^−1 ethidium bromide for 15 min and visualized by UV light.

[1] = target: T1, bovine serum albumin (BSA) (Bos taurus, UniProt P02769); assay: Synchronous fluorescence spectra of BSA; type: binding; conditions: 1.0 µM BSA, up to 10.0 µM compound; for decrease of BSA synchronous fluorescence intensity at Δλ = 60 nm: tryptophan residues; for decrease of BSA synchronous fluorescence intensity at Δλ = 15 nm: tyrosine residues
T1 construct: purchased Sigma-Aldrich Brasil
T1 sequence (P02769 25-607): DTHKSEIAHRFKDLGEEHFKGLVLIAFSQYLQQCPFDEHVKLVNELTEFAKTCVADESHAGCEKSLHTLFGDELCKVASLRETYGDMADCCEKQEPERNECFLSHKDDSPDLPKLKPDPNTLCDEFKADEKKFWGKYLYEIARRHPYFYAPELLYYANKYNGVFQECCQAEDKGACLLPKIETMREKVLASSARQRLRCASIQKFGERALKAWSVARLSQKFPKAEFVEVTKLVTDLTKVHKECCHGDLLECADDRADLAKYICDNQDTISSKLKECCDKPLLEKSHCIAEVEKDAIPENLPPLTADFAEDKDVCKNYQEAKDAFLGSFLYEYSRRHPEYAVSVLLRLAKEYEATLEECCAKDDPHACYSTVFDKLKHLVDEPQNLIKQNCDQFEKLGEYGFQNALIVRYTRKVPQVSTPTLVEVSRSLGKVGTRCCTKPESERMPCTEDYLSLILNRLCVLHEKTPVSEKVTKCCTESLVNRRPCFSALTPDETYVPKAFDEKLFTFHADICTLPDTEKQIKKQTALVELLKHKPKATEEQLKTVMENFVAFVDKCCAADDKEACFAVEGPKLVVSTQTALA
Method: Synchronous fluorescence spectroscopy is a very useful method to study the changes in the microenvironment of tyrosine and tryptophan amino acid residues in BSA [39]. The spectra were measured after and before the addition of test compounds. The synchronous fluorescence of BSA is characteristic of tyrosine residues when the difference between excitation and emission wavelength Δλ value is 15 nm and characteristic of tryptophan residues if Δλ value is 60 nm. […] In both cases, a decrease in emission intensity of BSA with increasing complex concentration was observed. […] In the spectra at Δλ = 60 nm, an important decrease of the BSA fluorescence intensity (~41% for 1 and ~44% for 2) accompanied by a small blue shift of 1nm occurs.
The binding of the copper(II) complexes to BSA was studied using fluorescence spectra. The emission spectra were recorded in the 295–600 nm range with excitation at 280 nm. The excitation and emission slit widths and scan rates were constantly maintained for all the experiments. BSA solution (1.0 µM) was titrated by successive additions of a stock solution of the complexes (50 mM) using a micropipette. All experiments were performed at 298 K. The synchronous fluorescence spectra of BSA varying the concentration of 1 and 2 were recorded at ∆λ (difference between excitation and emission wavelength) = 15 nm and ∆λ = 60 nm.

U87 cells = assay: ROS generation, DCFH-DA assay, U87 cells; type: cell-based, human; conditions: 1 × 10^−5 mol/L, 24 h
Excerpt: To examine the effects of H2AcMe, H2BzMe and their complexes 1 and 2 on the generation of free radicals (reactive oxygen species, ROS), we used the 2',7'-dichlorodihydrofluorescein diacetate (DCFH-DA) assay.
ROS accumulation was detected using dichlorodihydrofluorescein diacetate (DCFH-DA, Sigma). DCFH-DA is a non-fluorescent compound, that when it is taken up by passive diffusion into the cells, is hydrolyzed by esterases to yield non-permeable DCFH. In the presence of ROS, DCFH is oxidized to the fluorescent DCF. Tumor cells were treated with the compounds for 24 h and were then incubated with DCFH-DA (1 × 10^−5 mol·L^−1) for 30 min at 37 °C. Following incubation, the cells were washed twice with PBS. Thereafter, the cells were observed under the fluorescent microscope Zeiss Axionplan coupled with a digital camera at excitation and emission wavelengths of 488 and 525 nm, respectively. Data were analyzed using ImageJ (ImageJ, National Institute of Health, Bethesda, MD, USA) and expressed as percentages of DCFDA fluorescence of the corresponding control.

Row | SMILES | apparent binding constant Kapp (EB-CT-DNA) (EB-CT-DNA) [M⁻¹] | number of binding sites n (EB-CT-DNA) (EB-CT-DNA) | Stern-Volmer quenching constant Ksv (EB-CT-DNA) (EB-CT-DNA) | binding constant K (EB-CT-DNA, Scatchard) (EB-CT-DNA) | hypochromism in the EB-CT-DNA emission band at 602 nm (EB-CT-DNA) | alteration in the electrophoretic mobility of pUC 19 plasmid DNA (pUC 19 plasmid DNA) | decrease of BSA synchronous fluorescence intensity at Δλ = 60 nm [1] | decrease of BSA synchronous fluorescence intensity at Δλ = 15 nm [1] | ROS levels in U87 cells compared with T98 cells (U87 cells)
1 | CC(=O)NN=C(C)c1ccccn1.[Cl][Cu][Cl] [compound 1, [dichloro(2-acetylpyridineacetyl-hydrazone)copper(II)]] | 234000 | 1.04 ± 0.01 | (2.35 ± 0.03) × 10^3 M^−1 | (0.35 ± 0.01) × 10^4 M^−1 | up to 24% | no alteration in the electrophoretic mobility | ~ 41% | ~ 16% | higher levels of ROS in U87 cells
2 | CC(=O)NN=C(c1ccccc1)c1ccccn1.[Cl][Cu][Cl] [compound 2, [dichloro(2-benzoylpyridineacetylhydrazone)copper(II)]] | 207000 | 0.81 ± 0.02 | (2.05 ± 0.03) × 10^3 M^−1 | (0.38 ± 0.01) × 10^3 M^−1 | ≤ 20% | no alteration in the electrophoretic mobility | ~ 44% | ~ 18% | equally effective in both cell lineages
